Measured values published in PubChem BioAssay (NCI).
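1) Cells in 96-well plates. 2) Compound, 48 h, 5 concentrations. 3) Linear interpolation between surrounding doses. 4) Unreached endpoint = highest concentration. TGI: total growth inhibition.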

How the values were obtained:
Experiment in all cases: growth of human tumour cells (NCI), 48 h
[1] = test system: RXF 393 renal
[2] = test system: PC-3 prostate
[3] = test system: LOX IMVI melanoma
[4] = test system: MDA-MB-231 breast
[5] = test system: RPMI-8226 leukemia
[6] = test system: SN12C renal
[7] = test system: CAKI-1 renal
[8] = test system: KM12 colon
[9] = test system: NCI-H522 lung
[10] = test system: HCT-116 colon
[11] = test system: 786-0 renal
[12] = test system: K-562 leukemia
[13] = test system: CCRF-CEM leukemia
[14] = test system: DU-145 prostate
[15] = test system: SR leukemia
[16] = test system: UACC-62 melanoma
[17] = test system: UACC-257 melanoma
[18] = test system: MOLT-4 leukemia
[19] = test system: A498 renal
[20] = test system: MDA-MB-435
[21] = test system: SK-MEL-5 melanoma
[22] = test system: T-47D breast
[23] = test system: BT-549 breast
[24] = test system: HS 578T breast
[25] = test system: SK-MEL-28 melanoma
[26] = test system: SK-MEL-2 melanoma
[27] = test system: COLO 205 colon
[28] = test system: UO-31 renal
[29] = test system: OVCAR-5 ovarian
[30] = test system: SK-OV-3 ovarian
[31] = test system: MCF7 breast
[32] = test system: SW-620 colon
[33] = test system: HCT-15 colon
[34] = test system: MDA-N
[35] = test system: SF-295 CNS
[36] = test system: A549 NSCLC
[37] = test system: HOP-62 NSCLC
[38] = test system: ACHN renal
[39] = test system: TK-10 renal
[40] = test system: EKVX NSCLC
[41] = test system: IGROV1 ovarian
[42] = test system: HOP-92 NSCLC
[43] = test system: SF-539 CNS
[44] = test system: SNB-75 CNS
[45] = test system: SNB-19 CNS
[46] = test system: OVCAR-3 ovarian
[47] = test system: U251 CNS
[48] = test system: NCI-H460 lung
[49] = test system: HL-60(TB) leukemia
[50] = test system: MALME-3M melanoma
[51] = test system: M14 melanoma
[52] = test system: NCI-H23 lung
[53] = test system: NCI-H226 lung
[54] = test system: HCC-2998 colon
[55] = test system: OVCAR-8 ovarian
[56] = test system: HT29 colon
[57] = test system: SF-268 CNS
[58] = test system: NCI/ADR-RES ovarian
[59] = test system: OVCAR-4 ovarian

`CCOC(=O)NC(=S)NN(C)C1=NCC(C)(C)S1` was tested, and the TGI [1] was > 100 µM, the TGI [2] was > 100 µM and the TGI [3] was > 100 µM. For the same compound, the TGI [4] was > 100 µM, the TGI [5] was > 100 µM and the TGI [6] was > 100 µM. The TGI [7] was > 100 µM, the TGI [8] was > 100 µM and the TGI [9] was > 100 µM. For the same compound, the TGI [10] was > 100 µM, the TGI [11] was > 100 µM and the TGI [12] was > 100 µM. The TGI [13] was > 100 µM, the TGI [14] was > 100 µM and the TGI [15] was > 100 µM. For the same compound, the TGI [16] was > 100 µM, the TGI [17] was > 100 µM and the TGI [18] was > 100 µM. For the same compound, the TGI [19] was > 100 µM, the TGI [20] was > 100 µM and the TGI [21] was > 100 µM. The TGI [22] was > 100 µM, the TGI [23] was > 100 µM and the TGI [24] was > 100 µM. For the same compound, the TGI [25] was > 100 µM, the TGI [26] was > 100 µM and the TGI [27] was > 100 µM. The TGI [28] was > 100 µM, the TGI [29] was > 100 µM and the TGI [30] was > 100 µM. The TGI [31] was > 100 µM, the TGI [32] was > 100 µM and the TGI [33] was > 100 µM. The TGI [34] was > 100 µM, the TGI [35] was > 100 µM and the TGI [36] was > 100 µM. The TGI [37] was > 100 µM, the TGI [38] was > 100 µM and the TGI [39] was > 100 µM. The TGI [40] was > 100 µM, the TGI [41] was > 100 µM and the TGI [42] was > 100 µM. For the same compound, the TGI [43] was > 100 µM, the TGI [44] was > 100 µM and the TGI [45] was > 100 µM. For the same compound, the TGI [46] was > 100 µM, the TGI [47] was > 100 µM and the TGI [48] was > 100 µM. For the same compound, the TGI [49] was > 100 µM.

In the case of `O=C(CCCN1CCC2(CC1)CC(=O)N(N1CCOCC1)C2=O)c1ccccc1`, the TGI [1] was > 100 µM, the TGI [2] was > 100 µM and the TGI [3] was > 100 µM. The TGI [4] was > 100 µM, the TGI [5] was > 100 µM and the TGI [6] was > 100 µM. The TGI [7] was > 100 µM, the TGI [8] was > 100 µM and the TGI [9] was > 100 µM. For the same compound, the TGI [50] was > 100 µM, the TGI [51] was > 100 µM and the TGI [52] was > 100 µM. The TGI [10] was > 100 µM, the TGI [11] was > 100 µM and the TGI [12] was > 100 µM. The TGI [53] was > 100 µM, the TGI [13] was > 100 µM and the TGI [14] was > 100 µM. The TGI [15] was > 100 µM, the TGI [16] was > 100 µM and the TGI [17] was > 100 µM. For the same compound, the TGI [18] was > 100 µM, the TGI [20] was 35.4 µM and the TGI [21] was > 100 µM. The TGI [22] was > 100 µM, the TGI [23] was 27.9 µM and the TGI [25] was > 100 µM. The TGI [27] was > 100 µM, the TGI [28] was > 100 µM and the TGI [29] was > 100 µM. For the same compound, the TGI [30] was > 100 µM, the TGI [54] was > 100 µM and the TGI [31] was > 100 µM. For the same compound, the TGI [32] was > 100 µM, the TGI [33] was > 100 µM and the TGI [34] was > 100 µM. For the same compound, the TGI [35] was > 100 µM, the TGI [36] was > 100 µM and the TGI [55] was > 100 µM. For the same compound, the TGI [37] was > 100 µM, the TGI [38] was > 100 µM and the TGI [39] was > 100 µM. For the same compound, the TGI [40] was > 100 µM, the TGI [41] was > 100 µM and the TGI [56] was > 100 µM. The TGI [43] was > 100 µM, the TGI [44] was > 100 µM and the TGI [57] was > 100 µM. For the same compound, the TGI [45] was > 100 µM, the TGI [46] was > 100 µM and the TGI [47] was > 100 µM. For the same compound, the TGI [58] was > 100 µM and the TGI [49] was > 100 µM.

For `CCOC(=O)c1c(-c2ccc(OC)cc2)c(C#N)c(=S)n(C2OC(COC(C)=O)C(OC(C)=O)C(OC(C)=O)C2OC(C)=O)c1C` (configuration not stated), the TGI [1] was > 100 µM, the TGI [2] was > 100 µM and the TGI [3] was > 100 µM. For the same compound, the TGI [4] was > 100 µM, the TGI [6] was > 100 µM and the TGI [7] was > 100 µM. The TGI [8] was > 100 µM, the TGI [9] was > 100 µM and the TGI [50] was > 100 µM. The TGI [51] was > 100 µM, the TGI [52] was > 100 µM and the TGI [10] was > 100 µM. The TGI [11] was > 100 µM, the TGI [12] was > 100 µM and the TGI [53] was > 100 µM. For the same compound, the TGI [13] was > 100 µM, the TGI [14] was > 100 µM and the TGI [15] was > 100 µM. For the same compound, the TGI [16] was > 100 µM, the TGI [17] was > 100 µM and the TGI [18] was > 100 µM. The TGI [19] was > 100 µM, the TGI [20] was > 100 µM and the TGI [21] was > 100 µM. The TGI [22] was > 100 µM, the TGI [25] was > 100 µM and the TGI [27] was > 100 µM. The TGI [28] was 6.02 µM, the TGI [29] was > 100 µM and the TGI [59] was 92.2 µM. The TGI [30] was > 100 µM, the TGI [54] was > 100 µM and the TGI [31] was > 100 µM. For the same compound, the TGI [32] was > 100 µM, the TGI [33] was > 100 µM and the TGI [34] was > 100 µM. For the same compound, the TGI [35] was > 100 µM, the TGI [36] was > 100 µM and the TGI [55] was > 100 µM. For the same compound, the TGI [37] was > 100 µM, the TGI [38] was > 100 µM and the TGI [39] was > 100 µM. For the same compound, the TGI [40] was > 100 µM, the TGI [41] was > 100 µM and the TGI [56] was > 100 µM. For the same compound, the TGI [42] was 83.4 µM, the TGI [43] was > 100 µM and the TGI [44] was 91 µM. The TGI [57] was > 100 µM, the TGI [45] was > 100 µM and the TGI [46] was > 100 µM. The TGI [47] was > 100 µM, the TGI [58] was > 100 µM and the TGI [48] was > 100 µM. The TGI [49] was > 100 µM.
